These results are taken from patent US9920045B2, “Solid state forms of a PDE10 inhibitor” (Omeros Corporation, priority 2015, dated 2018).

The nature of data set [1]: Dynamic vapor sorption (gravimetric moisture sorption analysis). The class given is physicochemical. As to conditions: for hygroscopicity by moisture sorption analysis / moisture absorbed at 60% RH / moisture absorbed at 90% RH: 25° C.; for XRPD of the post moisture sorption sample: dried at 0% RH and 60° C. for 2 hours after sorption; for moisture absorbed at 60% RH / moisture absorbed at 90% RH: moisture sorption. As to the method:
Gravimetric moisture sorption experiments were carried out on all materials by first holding the sample at 40% RH and 25° C. until an equilibrium weight was reached or for a maximum of four hours. The sample was then subjected to an isothermal (25° C.) adsorption scan from 40 to 90% RH in steps of 10%. The sample was allowed to equilibrate to an asymptotic weight at each point for a maximum of four hours. Following adsorption, a desorption scan from 85 to 5% RH (at 25° C.) was run in steps of −10%, again allowing a maximum of four hours for equilibration to an asymptotic weight. An adsorption scan was then performed from 0% RH to 40% RH in steps of +10% RH. The sample was then dried for no less than two hours at 60° C. and the resulting solid analyzed by XRPD.
Compound (I), Form F, was further characterized by thermal analysis (DSC and TGA), Karl Fischer titration, and DVS. […] (FIG. 5). […] (FIG. 6). The weight loss observed on TGA corresponds to the melt on DSC. […] The material absorbed 2.0 wt % moisture at 60% RH and 2.4 wt % moisture at 90% RH (FIG. 7). […] Karl Fisher analysis of the sample indicates a moisture content of 0.6 wt %, which was performed when lab humidity was around 20% RH.
Compound (I), Shifted Form F, was further characterized by thermal analysis (DSC and TGA), Karl Fischer titration, and DVS. […] (FIG. 9). […] (FIG. 10). […] The material absorbs 2.4 wt % moisture at 60% RH and 2.9 wt % moisture at 90% RH (FIG. 11). […] The water content by KF is higher than the weight loss detected by TGA. It is possible that some moisture was slowly carried away by nitrogen stream and not reflected in the weight loss attributed to the thermal event. Characterization of shifted Form F was performed when lab humidity was between 50-60% RH.

Data set [2] can be described thus: Drying study / ambient exposure, form followed by XRPD. The class given is physicochemical. As to the method: To understand a change of Form F to shifted Form F, a drying study was conducted wherein a variable hydrate having shifted Form F was dried overnight under vacuum at 50° C. […] This study confirms that Form F absorbs moisture from the atmosphere and depending upon the relative humidity of the environment either remains Form F or converts to Shifted Form F.
XRPD patterns were collected with a PANalytical CubiX-Pro XRD diffractometer using an incident beam of Cu radiation produced using an Optix long, fine-focus source. An elliptically graded multilayer mirror was used to focus CuKα X-rays (1.54 Å) through the specimen and onto the detector. Prior to the analysis, a silicon specimen (NIST SRM 640d) was analyzed to verify the observed position of the Si 111 peak is consistent with the NIST-certified position. A specimen of the sample was sandwiched between 3-μm-thick films and analyzed in transmission geometry. A beam-stop, short antiscatter extension, and antiscatter knife edge were used to minimize the background generated by air. Soller slits for the incident and diffracted beams were used to minimize broadening from axial divergence. Diffraction patterns were collected using a scanning position-sensitive detector (X'Celerator) located 240 mm from the specimen and Data Collector software v. 2.2b. The tube power was set to 45 kV and 40 mA. […]

The structures appear in SMILES notation.

For `CCOC(C(=O)c1ccc(-c2cc(OC)c(Cl)c(OC)c2)o1)c1ccc(-c2nnc(C)s2)cc1` (stereo not shown) [shifted Form F, 1-(5-(4-chloro-3,5-dimethoxyphenyl)furan-2-yl)-2-ethoxy-2-(4-(5-methyl-1,3,4-thiadiazol-2-yl)phenyl)ethanone], in data set [1], the “hygroscopicity by moisture sorption analysis” value is recorded as “moderately hygroscopic”, the “XRPD of the post moisture sorption sample” value was “consistent with shifted Form F”, the “moisture absorbed at 60% RH” value came out at 2.4 wt % and the “moisture absorbed at 90% RH” value is given as 2.9 wt %. Further, the “XRPD of the dried solid” value in data set [2] (dried overnight under vacuum at 50° C.) was “consistent with Form F”.

With `CCOC(C(=O)c1ccc(-c2cc(OC)c(Cl)c(OC)c2)o1)c1ccc(-c2nnc(C)s2)cc1` (stereo not shown) [Form F, 1-(5-(4-chloro-3,5-dimethoxyphenyl)furan-2-yl)-2-ethoxy-2-(4-(5-methyl-1,3,4-thiadiazol-2-yl)phenyl)ethanone], in data set [1], the “hygroscopicity by moisture sorption analysis” value is given as “moderately hygroscopic”, the “XRPD of the post moisture sorption sample” value is given as “consistent with Form F”, the “moisture absorbed at 60% RH” value is recorded as 2.0 wt % and the “moisture absorbed at 90% RH” value is recorded as 2.4 wt %. In addition, in data set [2] (dried material exposed to ambient conditions for 5 days), the “form after exposure to ambient conditions” value is recorded as “converted back to shifted Form F”.
